Results on 73 compounds are retold here after patent US11414425B2 (priority 2018, dated 2022).

A value given as a limit tells only on which side of the number the result lay.

Chain of α5β3γ2 GABAA receptors (P31644 32-462): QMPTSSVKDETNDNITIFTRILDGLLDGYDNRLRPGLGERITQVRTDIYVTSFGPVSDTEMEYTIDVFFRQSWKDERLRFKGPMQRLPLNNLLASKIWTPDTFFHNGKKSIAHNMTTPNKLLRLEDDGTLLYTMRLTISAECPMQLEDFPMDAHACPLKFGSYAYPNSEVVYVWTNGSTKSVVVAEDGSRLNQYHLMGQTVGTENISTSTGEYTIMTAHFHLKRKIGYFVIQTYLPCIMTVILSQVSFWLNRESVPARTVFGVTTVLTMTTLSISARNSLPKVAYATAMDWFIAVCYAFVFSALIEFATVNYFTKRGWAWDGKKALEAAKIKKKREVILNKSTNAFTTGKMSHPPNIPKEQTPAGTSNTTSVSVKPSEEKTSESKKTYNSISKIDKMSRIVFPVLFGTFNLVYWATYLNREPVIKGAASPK
Chain of α5β3γ2 GABAA receptors (P28472 26-473 partner): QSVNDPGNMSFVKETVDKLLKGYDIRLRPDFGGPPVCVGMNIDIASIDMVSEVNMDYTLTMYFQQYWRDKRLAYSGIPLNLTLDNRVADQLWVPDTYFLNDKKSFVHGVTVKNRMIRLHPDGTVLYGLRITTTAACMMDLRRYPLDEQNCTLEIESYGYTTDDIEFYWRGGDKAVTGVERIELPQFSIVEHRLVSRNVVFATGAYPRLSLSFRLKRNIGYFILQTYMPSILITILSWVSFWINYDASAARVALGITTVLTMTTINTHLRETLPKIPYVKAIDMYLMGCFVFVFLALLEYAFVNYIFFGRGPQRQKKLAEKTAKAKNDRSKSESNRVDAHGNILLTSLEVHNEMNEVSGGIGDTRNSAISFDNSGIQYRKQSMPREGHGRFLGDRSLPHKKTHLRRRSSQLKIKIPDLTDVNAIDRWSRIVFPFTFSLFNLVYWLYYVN
Chain of α5β3γ2 GABAA receptors (P18507 40-475): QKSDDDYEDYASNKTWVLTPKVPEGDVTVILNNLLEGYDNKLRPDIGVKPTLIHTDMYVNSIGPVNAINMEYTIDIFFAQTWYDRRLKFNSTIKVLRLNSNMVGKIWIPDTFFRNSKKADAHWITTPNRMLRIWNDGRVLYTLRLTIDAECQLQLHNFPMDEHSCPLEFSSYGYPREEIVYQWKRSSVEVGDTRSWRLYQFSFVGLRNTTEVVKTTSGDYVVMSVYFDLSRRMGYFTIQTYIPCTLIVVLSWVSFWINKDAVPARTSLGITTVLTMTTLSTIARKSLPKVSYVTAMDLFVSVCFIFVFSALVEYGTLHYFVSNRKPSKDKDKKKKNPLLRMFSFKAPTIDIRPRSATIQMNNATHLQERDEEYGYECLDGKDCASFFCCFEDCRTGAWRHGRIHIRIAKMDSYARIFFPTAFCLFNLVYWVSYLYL

The first test has as its target α5β3γ2 GABAA receptors (Homo sapiens, UniProt P18507+P31644). Kind of test: [3H]Ro15-1788 binding, membranes of Ltk cells stably expressing α5β3γ2 GABAA receptors.
Conditions: not given
In turn, `Cc1noc(-c2ncn3c2Cc2c(Cc4ccc(F)cc4)nnn2-c2cc(Cl)ccc2-3)n1` [Compound 479] returned a Ki below 100 nM. `Fc1cccc(COCc2ncn3c2Cc2cnnn2-c2cc(Cl)ccc2-3)c1` [Compound 543] yielded a Ki of 100 to 1000 nM. For the compound `Cn1ccc(C#Cc2ncn3c2Cc2cnnn2-c2cc(Cl)ccc2-3)n1` [Compound 661], the Ki was below 100 nM. Consider `COc1ccc2c(c1)-n1nncc1Cc1c(C3=NCC(c4cccnc4)O3)ncn1-2` (racemic) [Compound 691], for which the Ki is below 100 nM.

`Clc1ccc2c(c1)-n1nncc1Cc1c(C#Cc3cnc4occc4c3)ncn1-2` [Compound 658]: the Ki is below 100 nM. `CC(C)Oc1ccc(C#Cc2ncn3c2Cc2cnnn2-c2cc(Cl)ccc2-3)cn1` [Compound 697] had a Ki below 100 nM. Same read-out and setting: the result for `COc1ccc2c(c1)-n1nncc1Cc1c(-c3cn(-c4ccccc4)nn3)ncn1-2` [Compound 524] reads 100 to 1000 nM; that for `COc1ccc2c(c1)-n1nncc1Cc1c(C#Cc3ccc(OC(F)F)nc3)ncn1-2` [Compound 693], below 100 nM; that for `Fc1cccc(Cc2nnn3c2Cc2c(-c4nc(-c5ccccc5)no4)ncn2-c2ccc(C(F)(F)F)cc2-3)c1` [Compound 551], 100 to 1000 nM.

Turning to `Cc1ncc(C#Cc2ncn3c2Cc2cnnn2-c2cc(Cl)ccc2-3)[nH]1` [Compound 659], the inhibitory constant (Ki) was below 100 nM. On the same count and under the same terms, the result for `COc1n[nH]cc1C#Cc1ncn2c1Cc1cnnn1-c1cc(Cl)ccc1-2` [Compound 662] reads below 100 nM; that for `COc1ccc(C#Cc2ncn3c2Cc2cnnn2-c2cc(Cl)ccc2-3)nc1` [Compound 532], below 100 nM.

Consider `Clc1ccc2c(c1)-n1nncc1Cc1c(COc3ccccc3)ncn1-2` [Compound 548], for which the Ki is below 100 nM.

The test is the same for the next values; noted with them: ranges; inhibition of [3H]Ro15-1788 binding.
`COCc1nnc2n1Cc1c(C#Cc3cccc(OC)n3)ncn1-c1ccc(Cl)cc1-2` [Compound 611] displayed a Ki below 100 nM. The same measure, in the same setting: the result for `COc1ccc(C#Cc2ncn3c2Cc2cnnn2-c2cc(OC(F)(F)F)ccc2-3)cc1` [Compound 497] reads below 100 nM; that for `COCc1nnc2n1Cc1c(C#Cc3ccc(SC)nc3)ncn1-c1ccc(OC)cc1-2` [Compound 665], 100 to 1000 nM; that for `COCc1nnc2n1Cc1c(C#Cc3cnc(OC)nc3)ncn1-c1ccc(OC)cc1-2` [Compound 584], 100 to 1000 nM. Same read-out and setting: for `COCc1nnc2n1Cc1c(C#Cc3ccc(F)cn3)ncn1-c1ccc(Cl)cc1-2` [Compound 572] the value was below 100 nM; for `Clc1ccc([C@@H]2CN=C(c3ncn4c3Cc3cnnn3-c3cc(Cl)ccc3-4)O2)cc1` [Compound 719], below 100 nM; for `COCc1nnc2n1Cc1c(C#Cc3ccc(Cl)cn3)ncn1-c1ccc(Cl)cc1-2` [Compound 579], below 100 nM. Compound `COCc1nnc2n1Cc1c(C#Cc3ccc(C(F)(F)F)cn3)ncn1-c1ccc(OC)cc1-2` [Compound 587] returned a Ki below 100 nM. Same read-out and setting: the result for `CC(C)OCc1nnc2n1Cc1c(-c3nc(-c4ccccc4)co3)ncn1-c1ccc(Cl)cc1-2` [Compound 276] reads below 100 nM.

`Fc1ccc(Cc2nnn3c2Cc2c(-c4ncco4)ncn2-c2ccc(OC(F)(F)F)cc2-3)cc1` [Compound 495] displayed a Ki of 100 to 1000 nM. `Clc1ccc2c(c1)-c1nnc(Oc3ccccc3)n1Cc1c(C3=N[C@H](c4ccccc4)CO3)ncn1-2` [Compound 541] yielded a Ki below 100 nM.

The compound `CCCc1noc(-c2ncn3c2Cc2c(Cc4ccc(F)cc4)nnn2-c2cc(OC(F)(F)F)ccc2-3)n1` [Compound 486] showed a Ki below 100 nM. For `CC1(C)OC(c2ncn3c2Cc2cnnn2-c2cc(OC(F)(F)F)ccc2-3)=N[C@@H]1c1ccccc1` [Compound 510], the Ki is below 100 nM.

Regarding `COc1ccc2c(c1)-n1nncc1Cc1c(C#Cc3ccc(C(F)(F)F)cn3)ncn1-2` [Compound 529], the Ki was in the range of 100 to 1000 nM. With `Fc1cccc(Cc2nnn3c2Cc2c(-c4nc(-c5ccccc5)no4)ncn2-c2ccc(OC(F)F)cc2-3)c1` [Compound 552], the Ki lay in the range of 100 to 1000 nM.

`Clc1ccc2c(c1)-n1nncc1Cc1c(C#Cc3ccc(-n4cccc4)cc3)ncn1-2` [Compound 702] came in with a Ki below 100 nM. `COCc1nnc2n1Cc1c(C#Cc3ncc(C)cn3)ncn1-c1ccc(OC)cc1-2` [Compound 595] registered a Ki of 100 to 1000 nM. On the same count and under the same terms, for `COCc1nnc2n1Cc1c(C#Cc3c[nH]nc3OC)ncn1-c1ccc(OC)cc1-2` [Compound 657] the value was below 100 nM. `Clc1ccc([C@H]2CN=C(c3ncn4c3Cc3cnnn3-c3cc(Cl)ccc3-4)O2)cc1` [Compound 720] gave a Ki below 100 nM. As to `Fc1ccccc1OCc1ncn2c1Cc1cnnn1-c1cc(Cl)ccc1-2` [Compound 547], the Ki was 100 to 1000 nM. Regarding `COCc1nnc2n1Cc1c(C#Cc3ccc(OC)c(C)n3)ncn1-c1ccc(OC)cc1-2` [Compound 586], the Ki was below 100 nM.

Regarding `COc1ccc2c(c1)-n1nncc1Cc1c(C#Cc3ccc(OC)nn3)ncn1-2` [Compound 694], the Ki is below 100 nM. Still for that read-out and setting: for `COCc1nnc2n1Cc1c(C#Cc3ccc4ncccc4c3)ncn1-c1ccc(OC)cc1-2` [Compound 714] the value was below 100 nM.

Turning to `COCc1nnc2n1Cc1c(C#Cc3ccc(-n4cccc4)cc3)ncn1-c1ccc(OC)cc1-2` [Compound 713], the Ki is below 100 nM. With `Cc1noc(-c2ncn3c2Cc2c(Cc4cccc(F)c4)nnn2-c2cc(Cl)ccc2-3)n1` [Compound 477], the Ki was below 100 nM. Still for that read-out and setting: the result for `COc1ccc(C#Cc2ncn3c2Cc2cnnn2-c2cc(Cl)ccc2-3)cn1` [Compound 533] reads below 100 nM; that for `COc1ccc2c(c1)-c1nnc(COC(F)F)n1Cc1c(C#Cc3ccc(OC)nc3)ncn1-2` [Compound 620], below 100 nM. Still for that read-out and setting: for `COCc1nnc2n1Cc1c(C#Cc3ccc(O)nc3)ncn1-c1ccc(Cl)cc1-2` [Compound 568] the value was below 100 nM; for `COc1ccc(C#Cc2ncn3c2Cc2cnnn2-c2cc(C(F)(F)F)ccc2-3)nc1` [Compound 554], below 100 nM; for `COCc1nnc2n1Cc1c(C#Cc3ncccn3)ncn1-c1ccc(Cl)cc1-2` [Compound 571], below 100 nM. Same read-out and setting: the result for `COCc1nnc2n1Cc1c(C#Cc3ccc(OC(F)(F)F)cn3)ncn1-c1ccc(OC)cc1-2` [Compound 613] reads below 100 nM; that for `COCc1nnn2c1Cc1c(C#Cc3ccn(C)n3)ncn1-c1ccc(Cl)cc1-2` [Compound 643], below 100 nM. `CC(C)c1noc(-c2ncn3c2Cc2c(Cc4ccc(F)cc4)nnn2-c2cc(Cl)ccc2-3)n1` [Compound 489] registered an inhibitory constant (Ki) below 100 nM.

With `COCc1nnc2n1Cc1c(C#Cc3cncnc3)ncn1-c1ccc(OC)cc1-2` [Compound 592], the Ki was below 100 nM. For `CCOC(=O)c1ncn2c1Cc1c(Cc3ccccc3Cl)nnn1-c1cc(C)ccc1-2` [Compound 54], the Ki is below 100 nM. Compound `COCc1nnc2n1Cc1c(C#Cc3c[nH]nc3OC)ncn1-c1ccc(Cl)cc1-2` [Compound 664] displayed an inhibition constant Ki below 100 nM. Regarding `COc1ccc2c(c1)-n1nncc1Cc1c(C#Cc3cnc(OC)s3)ncn1-2` [Compound 621], the Ki is below 100 nM. For `COCc1nnc2n1Cc1c(C#Cc3ccc(C)nc3)ncn1-c1ccc(Cl)cc1-2` [Compound 556], the inhibition constant (Ki) was in the range of 100 to 1000 nM.

Consider `COCc1nnc2n1Cc1c(-c3nc(C)no3)ncn1-c1ccc(-c3ccncc3)cc1-2` [Compound 468], for which the inhibitory constant (Ki) was above 1000 nM. Compound `COCc1nnc2n1Cc1c(C#Cc3ccc4nccn4c3)ncn1-c1ccc(OC)cc1-2` [Compound 684] gave a Ki of 100 to 1000 nM. For the compound `COCc1nnc2n1Cc1c(C#Cc3cc(C)ccn3)ncn1-c1ccc(Cl)cc1-2` [Compound 560], the Ki was below 100 nM. Take `Cc1nc(-c2ncn3c2Cc2c(Cc4ccc(F)cc4)nnn2-c2cc(Cl)ccc2-3)no1` [Compound 496]: the Ki is below 100 nM. For `COCc1nnc2n1Cc1c(C#Cc3cnc(C)nc3)ncn1-c1ccc(Cl)cc1-2` [Compound 573], the inhibition constant Ki lay within 100 to 1000 nM.

Regarding `Fc1ccc(-n2cc(-c3ncn4c3Cc3cnnn3-c3cc(Cl)ccc3-4)nn2)cc1` [Compound 525], the Ki was below 100 nM. For the compound `CC(C)c1noc(-c2ncn3c2Cc2c(Cc4cccc(F)c4)nnn2-c2cc(C(F)(F)F)ccc2-3)n1` [Compound 487], the Ki fell in the range of 100 to 1000 nM.

`COCc1nnc2n1Cc1c(C#Cc3cnc(OC)nc3)ncn1-c1ccc(Cl)cc1-2` [Compound 575] showed a Ki of 100 to 1000 nM. Compound `COCc1nnc2n1Cc1c(C#Cc3cccc(OC)n3)ncn1-c1ccc(OC)cc1-2` [Compound 612] had a Ki below 100 nM. In the case of `COc1ncc(C#Cc2ncn3c2Cc2cnnn2-c2cc(Cl)ccc2-3)s1` [Compound 622], the Ki was below 100 nM. Same read-out and setting: the result for `COCc1nnc2n1Cc1c(C#Cc3ccc(F)cn3)ncn1-c1ccc(OC)cc1-2` [Compound 585] reads below 100 nM; that for `FC(F)(F)c1ccc2c(c1)-n1nncc1Cc1c(C#Cc3ccc(Cl)cc3)ncn1-2` [Compound 502], below 100 nM. As to `CCc1cncc(C#Cc2ncn3c2Cn2c(COC)nnc2-c2cc(OC)ccc2-3)c1` [Compound 599], the inhibitory constant (Ki) is below 100 nM. `CC(C)c1noc(-c2ncn3c2Cc2c(Cc4ccc(F)cc4)nnn2-c2cc(C(F)(F)F)ccc2-3)n1` [Compound 490] showed a Ki below 100 nM. In turn, `COCc1nnc2n1Cc1c(C#Cc3cc(C)ccn3)ncn1-c1ccc(OC)cc1-2` [Compound 564] returned a Ki of 100 to 1000 nM.

Compound `COCc1nnn2c1Cc1c(C3=NC[C@@H](c4ccc(Cl)cc4)O3)ncn1-c1ccc(Cl)cc1-2` [Compound 634] returned a Ki below 100 nM. `COCc1nnc2n1Cc1c(C#CC(C)(C)C)ncn1-c1ccc(Cl)cc1-2` [Compound 721] yielded a Ki below 100 nM.

Consider `COCc1nnc2n1Cc1c(C)ncn1-c1ccc(OC)cc1-2` [Compound 329], for which the Ki is above 1000 nM.

`COCc1nnc2n1Cc1c(C#Cc3ccc(OC(F)(F)F)cn3)ncn1-c1ccc(Cl)cc1-2` [Compound 580] came in with a Ki below 100 nM.

`COCc1nnc2n1Cc1c(C#Cc3cnc(C)nc3)ncn1-c1ccc(OC)cc1-2` [Compound 594]: the Ki was 100 to 1000 nM. Same read-out and setting: for `COCc1nnc2n1Cc1c(C#Cc3cccnc3OC)ncn1-c1ccc(Cl)cc1-2` [Compound 614] the value was below 100 nM.

Compound `COCc1nnc2n1Cc1c(C#Cc3ccc(C)cn3)ncn1-c1ccc(Cl)cc1-2` [Compound 557] showed a Ki below 100 nM.
